Converted amounts (≈) assume the structure as drawn.
Columns and labels:
[1] = Solubility study in different solvents (UV-spectrometry); type: physicochemical; conditions: at least 24 h
Protocol: The supersaturated solution is then filtered and the concentration of product in the filtrate is determined using UV-spectrometry.
In water, the influence of the pH is adjusted to pH 2, pH 7, and pH 9. HCl and NaOH are used to adjust the pH.

[2] = GVS analysis; type: physicochemical
Text: The evolution of the material is followed via XPRD at various time points.

[3] = Dog bioavailability study; type: in vivo, beagle dogs; conditions: for Cmax / Exposure AUC / Tmax: target dose 10 mg/kg
Protocol: The dogs are not fasted before dosing, and have free access to water. Every day of the treatment, a half food ration is provided after the T0 blood sampling, 8 to 17 min before treatment, and the second half ration is given just after dosing or 1 h after treatment for period 2. A 3 days washout period is ensured between treatments.
The capsule composition is described in Table XX below.
The capsules are administered orally with water (5-10 mL), to provide good oesophageal transit. Each animal is checked at least once daily.
Blood is collected from the jugular vein into lithium heparinised tubes at TO (before food administration) and then at 1 h, 2 h, 4 h, 6 h, 8 h, 10 h, and 24 h post treatment.
Plasma is then obtained from blood by centrifugation (2500 g for 10 min at 4° C.), and stored at −20° C. until analysis.
After vortex mixing and centrifugation at 4° C., the supernatants are diluted with a 0.5 volume of HPLC grade water in a midi-eppendorf 96-well plate. The plate is sealed and shaken to ensure sample homogeneity prior to analysis.
Pharmacokinetic analysis is performed using WinNonlin™ software version 5.3, using concentrations from individual animals. Non-compartmental analysis is applied to determine the PK parameters (Cmax, Tmax, AUC0-last, t1/2, etc. . . . )
Concentrations below the limit of detection are set to zero for descriptive statistics and PK parameter calculations.

[4] = Dissolution in solvents (salt Protocol 1); type: physicochemical; conditions: DCM, up to 20 relative volumes, agitated at 50° C.; not in the other nine solvents
Text: The solvent is selected from isopropanol, ethanol, methanol, isopropyl acetate, THF, TBME, acetone, methyl ethyl ketone, DCM, and MeCN.

[5] = Thermodynamic aqueous solubility by HPLC; type: physicochemical; conditions: salt obtained by Protocol 4
[6] = Complementary salt analysis (XRPD, stability evaluation); type: physicochemical; conditions: salt obtained by Protocol 4
[7] = oral capsules, on average at the 2 capsule strengths
[8] = single oral administration, 1 × 100 mg capsule
[9] = single oral administration, 4 × 25 mg capsules

Work on `Cl.O.O.O.O=C(Nc1nc2cccc(-c3ccc(CN4CCS(=O)(=O)CC4)cc3)n2n1)C1CC1` [Compound 1·HCl·3H2O] yielded a Solubility ([1]; 0.005M HCl, 20° C.) of 3100 µg/mL, a Solubility ([1]; 0.01M HCl + 2.0% Tween 80, 20° C.) of 2790 µg/mL and a Solubility ([1]; 0.01M HCl, 20° C.) of 2340 µg/mL. For the same molecule, the Solubility ([1]; Acetone, 20° C.) was 415 µg/mL, the Solubility ([1]; Acetonitrile, 20° C.) was 7360 µg/mL and the Solubility ([1]; Acetonitrile/water (1/1), 20° C.) was 25600 µg/mL. For the same molecule, the Solubility ([1]; Acetonitrile/water (4/1), 20° C.) was 7810 µg/mL, the Solubility ([1]; Dichloromethane, 20° C.) was 388 µg/mL and the Solubility ([1]; Ethanol, 20° C.) was 764 µg/mL. It also gave a Solubility ([1]; HP-β-CD 40% pH2, 20° C.) of 7880 µg/mL, a Solubility ([1]; HP-β-CD 40% pH3, 20° C.) of 9330 µg/mL and a Solubility ([1]; HP-β-CD 40% pH4, 20° C.) of 2790 µg/mL. For the same molecule, the Solubility ([1]; Methanol, 20° C.) was 743 µg/mL, the Solubility ([1]; PEG400, 20° C.) was 36600 µg/mL and the Solubility ([1]; Propanol, 20° C.) was 663 µg/mL. It also gave a Solubility ([1]; Propylene glycol, 20° C.) of 11700 µg/mL, a Solubility ([1]; Tetrahydrofuran, 20° C.) of 208 µg/mL and a Solubility ([1]; Water (purified), 20° C.) of 3170 µg/mL. For the same molecule, the Solubility ([1]; Water pH2, 20° C.) was 8050 µg/mL, the Solubility ([1]; Water pH7, 20° C.) was 2260 µg/mL and the Solubility ([1]; Water pH9, 20° C.) was 2680 µg/mL. The Solubility ([1]; Water/ethanol 1/1, 20° C.) was 8680 µg/mL, the Solubility ([1]; t-butyl methyl ether, 20° C.) was 26.3 µg/mL and the “change in form at elevated RH” value ([2]; GVS, followed by XRPD) was “No change in form”. For the same molecule, the “temperature of dehydration to Compound 1·HCl anhydrous” value ([2]; upon heating) was “above 60 °C”, the “in vivo exposure compared with Compound 1” value [3, 7] was “improved exposure” and the “rate of absorption compared with Compound 1” value [3, 7] was “more rapidly absorbed”. The Cmax [3, 8] was 2630 ng/mL, the “Exposure AUC” value [3, 8] was 21700 ng·h/mL and the Tmax [3, 8] was 2.0 h. For the same molecule, the Cmax [3, 9] was 3050 ng/mL, the “Exposure AUC” value [3, 9] was 33600 ng·h/mL and the Tmax [3, 9] was 2.0 h. For the same molecule, the T1/2 ([3]; single oral administration, one range across both forms and both capsule strengths) was “Range 4.43-8.96 h”.
`O=C(Nc1nc2cccc(-c3ccc(CN4CCS(=O)(=O)CC4)cc3)n2n1)C1CC1` [Compound 1, cyclopropanecarboxylic acid {5-[4-(1,1-dioxo-thiomorpholin-4-ylmethyl)-phenyl]-[1,2,4]triazolo[1,5-a]pyridin-2-yl}-amide] showed a Solubility ([1]; 0.005M HCl, 20° C.) of 252 µg/mL (≈ 592 µM), a Solubility ([1]; HP-β-CD 40% pH3, 20° C.) of 550 µg/mL (≈ 1290 µM) and a Cmax [3, 8] of 797 ng/mL. The Tmax [3, 8] was 8.0 h, the Cmax [3, 9] was 894 ng/mL and the “Exposure AUC” value [3, 9] was 10400 ng·h/mL. The Tmax [3, 9] was 6.0 h and the dissolution in solvent [4] was “almost full dissolution”.
In the case of `Cl.O=C(Nc1nc2cccc(-c3ccc(CN4CCS(=O)(=O)CC4)cc3)n2n1)C1CC1` [HCl salt], the aqueous solubility [5] is reported as 1900 µg/mL, the “hygroscopicity of the salt” value [6] is reported as “non-hygroscopic” and the “stability of the salt” value ([6]; stability evaluation 1 week at 40° C./75% Relative humidity) is reported as “stable”.
